Structures can show the parent of a compound that is named as a salt. Where two headings read alike, the source gives them in different places. A value given as a limit tells only on which side of the number the result lay.

These results are taken from US10189826B2, “Heterocyclic compounds and methods of use” (Medivation Technologies LLC, priority 2015, dated 2019).

Data set [1] can be described thus: Cytotoxicity assay (LDH release) in HepG2_LSSprom cells. Format: cell-based. The conditions noted are these: human, HepG2 LSSprom cells, LDH release; for IC50 at 24 h: 24 h treatment; for IC50 at 6 h: 6 h treatment. The procedure, abridged: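 HepG2_LSSprom cells exposed to compound at 0.625–10 μM in serum-free medium for 6 h or 24 h. Medium LDH measured colorimetrically at 490 nm; release expressed as % of lysis control after vehicle subtraction, negatives set to 0; five independent experiments, triplicate wells, mean±SEM.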

Data set [2] has as its system SREBP-2 transcriptional activity (SREBP2 cleavage) in HepG2_LSSprom cells. Briefly: Luciferase reporter driven by a SREBP-2 specific promoter in HepG2_LSSprom cells. It is filed as cell-based. The procedure, abridged:
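HepG2_LSSprom cells dosed at 0.625-10 μM in serum-free medium for 6 h (or 24 h), then luciferase luminescence read. Signal normalized to vehicle (100%); IC50 by four-parameter nonlinear fit; five independent experiments, triplicate wells.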

Where [3] appears, read: 24 h, 24 h treatment, HepG2_LSSprom cells, read-out: SREBP2 Cleavage (IC50 μM) 24 h.
The mark [4] stands for this setting: 24 h, read-out: SREBP2 Cleavage (IC50 μM) 24 h.
The mark [5] stands for this setting: 6 h, 6 h treatment, HepG2_LSSprom cells, read-out: SREBP2 Cleavage (IC50 μM) 6 h.

For the molecule `CC(C)CCn1nccc1-c1cc(-c2ccc(C(=O)N3CCOCC3)cc2Cl)cs1` [Compound 102, [3-chloro-4-[5-(2-isopentylpyrazol-3-yl)-3-thienyl]phenyl]-morpholino-methanone], in data set [1], the IC50 at 24 h is above 10 µM. In data set [2] (setting [3]), the IC50 was 0.44 µM.

As for `CC(C)(C)c1cc(-c2csc(-c3ccc(C(=O)N4CCC[C@H](O)C4)cc3Cl)c2)ccn1` [Compound 89b, (S)-(4-(4-(2-(tert-butyl)pyridin-4-yl)thiophen-2-yl)-3-chlorophenyl)(3-hydroxypiperidin-1-yl)methanone], the IC50 at 24 h in data set [1] is above 10 µM. For the same molecule, the IC50 in data set [2] (setting [3]) is 0.02 µM.

`CC(C)(C)c1cc(-c2cc(-c3ccc(C(=O)N4CCC[C@@H](O)C4)cc3Cl)cs2)ccn1` [Compound 48a, (R)-(4-(5-(2-(tert-butyl)pyridin-4-yl)thiophen-3-yl)-3-chlorophenyl)(3-hydroxypiperidin-1-yl)methanone]: the IC50 at 24 h in data set [1] was above 10 µM. In addition, in data set [2] (setting [3]), the IC50 came out at 0.31 µM.

`CC(C)(C)c1cc(-c2cc(-c3ccc(C(=O)N4CCCC(N)C4)cc3Cl)cs2)ccn1` (racemic) [Compound 21, 1-{4-[5-(2-tert-butylpyridin-4-yl)thiophen-3-yl]-3-chlorobenzoyl}piperidin-3-amine]: the concentration for half-maximal inhibition (IC50) at 24 h in data set [1] was above 3 µM. Also, the half-inhibitory concentration (IC50) in data set [2] (setting [3]) is above 1 µM.

For the molecule `CC(C)(C)c1cc(-c2csc(-c3ccc(C(=O)N4CCc5nc[nH]c5C4)cc3Cl)c2)ccn1` [Compound 92, 2-tert-butyl-4-[5-(2-chloro-4-{3H,4H,5H,6H,7H-imidazo[4,5-c]pyridine-5-carbonyl}phenyl)thiophen-3-yl]pyridine], the IC50 at 24 h in data set [1] was above 10 µM. In addition, in data set [2] (setting [3]), the IC50 came to 0.74 µM.

Regarding `CC(C)(C)c1cc(-c2csc(-c3ccc(C(=O)N4CC[C@@H](N)C4)cc3Cl)c2)ccn1` [Compound 96a, (3R)-1-{4-[4-(2-tert-butylpyridin-4-yl)thiophen-2-yl]-3-chlorobenzoyl}pyrrolidin-3-amine], the concentration for half-maximal inhibition (IC50) at 24 h in data set [1] is above 10 µM. Also, the IC50 in data set [2] (setting [3]) was found to be 1.4 µM.

Regarding `CC(C)(C)c1cc(-c2cc(-c3ccc(C(=O)Nc4ccccc4)cc3Cl)cs2)ccn1` [Compound 23, 4-[5-(2-tert-butylpyridin-4-yl)thiophen-3-yl]-3-chloro-N-phenylbenzamide], the 50% inhibitory concentration (IC50) at 24 h in data set [1] is above 10 µM. Further, in data set [2] (setting [4]), the IC50 came out at 0.48 µM.

In the case of `CC(C)(C)c1cc(-c2csc(-c3ccc(C(=O)N4CCC[C@](C)(O)C4)cc3Cl)c2)ccn1` [Compound 101b, (3S)-1-{4-[4-(2-tert-butylpyridin-4-yl)thiophen-2-yl]-3-chlorobenzoyl}-3-methylpiperidin-3-ol], in data set [1], the IC50 at 24 h was above 10 µM. For the same molecule, the IC50 in data set [2] (setting [3]) amounted to 0.025 µM.

On to `CC(C)(C)OC(=O)NC1CCCN(C(=O)c2ccc(-c3csc(-c4ccnc(C(C)(C)C)c4)c3)c(Cl)c2)C1` (racemic) [Compound 19, tert-butyl N-(1-{4-[5-(2-tert-butylpyridin-4-yl)thiophen-3-yl]-3-chlorobenzoyl}piperidin-3-yl)carbamate], for which the concentration for half-maximal inhibition (IC50) at 24 h in data set [1] was above 3 µM. Further, the IC50 in data set [2] (setting [3]) was 0.25 µM.

With `CC(C)(C)c1cc(-c2cc(-c3ccc(C(=O)N4CCC(O)C4)cc3Cl)cs2)ccn1` (centres unmarked) [Compound 82, [4-[5-(2-tert-butyl-4-pyridyl)-3-thienyl]-3-chloro-phenyl]-(3-hydroxypyrrolidin-1-yl)methanone], the concentration for half-maximal inhibition (IC50) at 24 h in data set [1] was above 10 µM. In addition, the half-inhibitory concentration (IC50) in data set [2] (setting [3]) is 0.5 µM.

`CC(C)(C)c1cc(-c2cc(-c3ccc(C(=O)N4CCCC(N5CCCS5(=O)=O)C4)cc3Cl)cs2)ccn1` (racemic) [Compound 36, 2-(1-{4-[5-(2-tert-butylpyridin-4-yl)thiophen-3-yl]-3-chlorobenzoyl}piperidin-3-yl)-1λ^6,2-thiazolidine-1,1-dione]: the IC50 at 24 h in data set [1] was above 10 µM. Besides, the half-maximal inhibitory concentration (IC50) in data set [2] (setting [3]) is 0.49 µM.

For `CC(C)(C)OC(=O)NC1CCN(C(=O)c2ccc(-c3csc(-c4ccnc(C(C)(C)C)c4)c3)c(Cl)c2)C1` (centres unmarked) [Compound 90], in data set [1], the IC50 at 24 h was above 10 µM. The IC50 in data set [2] (setting [3]) amounted to 0.37 µM.

Turning to `CC(C)(C)c1cc(-c2csc(-c3ccc(C(=O)N4CC[C@@H](O)C4)cc3Cl)c2)ccn1` [Compound 68b, (3R)-1-{4-[4-(2-tert-butylpyridin-4-yl)thiophen-2-yl]-3-chlorobenzoyl}pyrrolidin-3-ol], in data set [1], the concentration for half-maximal inhibition (IC50) at 24 h is above 10 µM. The IC50 in data set [2] (setting [3]) was 0.06 µM.

Turning to `CC(C)(C)c1cc(-c2csc(-c3ccc(C(=O)N4CCC[C@](C)(O)C4)cc3Cl)c2)ccn1` [Compound 101a, [4-[4-(2-tert-butyl-4-pyridyl)-2-thienyl]-3-chloro-phenyl]-[(3S)-3-hydroxy-3-methyl-1-piperidyl] methanone hydrochloride], the IC50 at 24 h in data set [1] was above 10 µM. For the same molecule, the IC50 in data set [2] (setting [3]) stood at 0.15 µM.

On to `CCOC(=O)N1CCN(C(=O)c2ccc(-c3csc(-c4ccnc(C(C)(C)C)c4)c3)c(Cl)c2)CC1` [Compound 45, ethyl 4-{4-[5-(2-tert-butylpyridin-4-yl)thiophen-3-yl]-3-chlorobenzoyl}piperazine-1-carboxylate], for which the IC50 at 24 h in data set [1] is above 10 µM. Also, the IC50 in data set [2] (setting [4]) was 1.8 µM.

With `NC1CCCN(C(=O)c2ccc(-c3csc(-c4ccnc(N5CCOCC5)c4)c3)c(Cl)c2)C1` (centres unmarked) [Compound 65, 1-(3-chloro-4-(5-[2-(morpholin-4-yl)pyridin-4-yl]thiophen-3-yl)benzoyl)piperidin-3-amine], the IC50 at 24 h in data set [1] is above 10 µM. For the same molecule, the half-inhibitory concentration (IC50) in data set [2] (setting [3]) is 2.4 µM.

As to `CC(C)(C)c1cc(-c2cc(-c3ccc(C(=O)N4CCCC(NC(=O)NC5CC5)C4)cc3Cl)cs2)ccn1` (centres unmarked) [Compound 56, 1-(1-{4-[5-(2-tert-butylpyridin-4-yl)thiophen-3-yl]-3-chlorobenzoyl}piperidin-3-yl)-3-cyclopropylurea], the IC50 at 24 h in data set [1] was above 10 µM. Further, in data set [2] (setting [3]), the IC50 came to 1 µM.

`CN(C(=O)OC(C)(C)C)C1CCCN(C(=O)c2ccc(-c3csc(-c4ccnc(C(C)(C)C)c4)c3)c(Cl)c2)C1` (centres unmarked) [Compound 70, tert-butyl N-(1-{4-[5-(2-tert-butylpyridin-4-yl)thiophen-3-yl]-3-chlorobenzoyl}piperidin-3-yl)-N-methylcarbamate]: the IC50 at 24 h in data set [1] was above 10 µM. The IC50 in data set [2] (setting [3]) stood at 0.08 µM.

Take `CC(C)(C)c1cc(-c2cc(-c3ccc(C(=O)N4CCCCC4)cc3Cl)cs2)ccn1` [Compound 11, 2-tert-butyl-4-{4-[2-chloro-4-(piperidine-1-carbonyl)phenyl]thiophen-2-yl}pyridine]: the IC50 at 6 h in data set [1] was above 10 µM. Also, the figures for the IC50 in data set [2] (setting [5]) and in data set [2] (setting [3]) were below 1 µM and 0.3 µM, respectively.

In the case of `CC(C)(C)OC(=O)N1CCN(C(=O)c2ccc(-c3csc(-c4ccnc(C(C)(C)C)c4)c3)c(Cl)c2)CC1` [Compound 27, tert-butyl 4-{4-[5-(2-tert-butylpyridin-4-yl)thiophen-3-yl]-3-chlorobenzoyl}piperazine-1-carboxylate], the concentration for half-maximal inhibition (IC50) at 24 h in data set [1] was above 10 µM. Further, in data set [2] (setting [3]), the IC50 came to 0.68 µM.

As to `CC(C)(C)c1cc(-c2cc(-c3ccc(C(=O)N4CCC(F)(F)C4)cc3Cl)cs2)ccn1` [Compound 12, 2-tert-butyl-4-{4-[2-chloro-4-(3,3-difluoropyrrolidine-1-carbonyl)phenyl]thiophen-2-yl}pyridine], the half-inhibitory concentration (IC50) at 6 h in data set [1] was above 10 µM. The results for the IC50 in data set [2] (setting [5]) and in data set [2] (setting [3]) were above 10 µM and 0.5 µM, respectively.
